From patent US11352340B2, “Pyridine and pyridimine compounds as PI3K-gamma inhibitors” (Incyte Corporation, priority 2016, dated 2022)
Structures can show the parent of a compound that is named as a salt.

Tests used:
[1] = target: PI3Kγ (p110γ) Recombinant Human Protein (Homo sapiens (Human), UniProt P48736); experiment: PI3K-γ Scintillation Proximity Assay; format: biochemical; settings: read-out: PI3K-gamma SPA IC50
In short: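 Radiometric SPA: reaction at room temperature for 120 min using 2 μM ATP with [γ-33P]ATP tracer, 20 μM PIP2 substrate and 13 nM human PI3Kγ (MOPS pH 6.7, MgCl2, DTT, CHAPS; 2% DMSO). EDTA quench with WGA beads, scintillation count, and IC50 fit of percent-of-control activity.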

[2] = tested on: Phosphorylated Ribosomal Protein S6 (RPS6) in THP-1 cells; experiment: THP-1 RPS6 ELISA Assay; format: cell-based, Human; settings: Homo sapiens, MCP-1 stimulated, phospho-RPS6 ELISA, read-out: THP p-RPS6 ELISA IC50
In short: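 Phospho-RPS6 in lysates measured by ELISA at 450 nm, corrected at 540 nm, after MCP-1 challenge (10 nM, 15 min) of THP-1 cells that were starved overnight and exposed to test compound for 2 h at 37° C, 2×10^5 cells/well. Curve fit of percent inhibition gives IC50.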

[3] = target: PI3Kδ (p110δ/p85α) Recombinant Human Protein (Homo sapiens (Human), UniProt O00329); experiment: PI3Kδ Scintillation Proximity Assay; format: biochemical; settings: read-out: PI3K-delta SPA IC50
In short: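 Assay conditions: 2 μM ATP (radiolabelled), 20 μM PIP2, 3.4 nM PI3Kδ, 20 mM MOPS pH 6.7 with 10 mM MgCl2, 5 mM DTT, 0.03% CHAPS, 2 h at room temperature. Signal from bead-captured 33P product; IC50 versus solvent control.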

PI3Kδ (p110δ/p85α) Recombinant Human Protein, sequence (O00329 whole entry): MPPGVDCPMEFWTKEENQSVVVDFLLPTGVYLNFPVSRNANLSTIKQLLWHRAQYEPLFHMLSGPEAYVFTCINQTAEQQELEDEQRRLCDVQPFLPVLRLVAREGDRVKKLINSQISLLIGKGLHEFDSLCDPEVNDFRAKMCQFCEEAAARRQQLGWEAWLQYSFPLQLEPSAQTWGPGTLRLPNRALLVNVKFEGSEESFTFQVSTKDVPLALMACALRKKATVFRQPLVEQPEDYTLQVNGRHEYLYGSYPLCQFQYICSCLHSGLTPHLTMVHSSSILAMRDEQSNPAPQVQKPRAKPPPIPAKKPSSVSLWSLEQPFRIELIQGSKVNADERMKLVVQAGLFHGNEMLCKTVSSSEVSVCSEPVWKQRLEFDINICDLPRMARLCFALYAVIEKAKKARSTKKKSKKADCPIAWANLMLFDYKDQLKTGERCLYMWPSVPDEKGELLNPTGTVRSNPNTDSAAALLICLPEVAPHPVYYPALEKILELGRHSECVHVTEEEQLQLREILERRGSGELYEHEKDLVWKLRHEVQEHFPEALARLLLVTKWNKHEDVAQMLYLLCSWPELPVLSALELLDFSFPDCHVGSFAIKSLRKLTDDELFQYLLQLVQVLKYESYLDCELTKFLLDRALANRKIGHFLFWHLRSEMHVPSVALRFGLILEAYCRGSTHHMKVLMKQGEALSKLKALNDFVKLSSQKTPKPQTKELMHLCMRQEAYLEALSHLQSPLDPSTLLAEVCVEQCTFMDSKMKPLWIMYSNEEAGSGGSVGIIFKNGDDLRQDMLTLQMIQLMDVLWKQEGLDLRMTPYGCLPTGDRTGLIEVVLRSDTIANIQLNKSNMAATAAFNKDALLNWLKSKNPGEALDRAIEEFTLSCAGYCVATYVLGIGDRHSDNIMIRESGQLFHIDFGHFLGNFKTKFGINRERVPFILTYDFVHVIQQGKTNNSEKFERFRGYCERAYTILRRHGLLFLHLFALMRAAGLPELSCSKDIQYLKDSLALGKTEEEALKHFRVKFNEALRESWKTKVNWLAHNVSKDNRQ
PI3Kδ (p110δ/p85α) Recombinant Human Protein, sequence (P27986 whole entry partner): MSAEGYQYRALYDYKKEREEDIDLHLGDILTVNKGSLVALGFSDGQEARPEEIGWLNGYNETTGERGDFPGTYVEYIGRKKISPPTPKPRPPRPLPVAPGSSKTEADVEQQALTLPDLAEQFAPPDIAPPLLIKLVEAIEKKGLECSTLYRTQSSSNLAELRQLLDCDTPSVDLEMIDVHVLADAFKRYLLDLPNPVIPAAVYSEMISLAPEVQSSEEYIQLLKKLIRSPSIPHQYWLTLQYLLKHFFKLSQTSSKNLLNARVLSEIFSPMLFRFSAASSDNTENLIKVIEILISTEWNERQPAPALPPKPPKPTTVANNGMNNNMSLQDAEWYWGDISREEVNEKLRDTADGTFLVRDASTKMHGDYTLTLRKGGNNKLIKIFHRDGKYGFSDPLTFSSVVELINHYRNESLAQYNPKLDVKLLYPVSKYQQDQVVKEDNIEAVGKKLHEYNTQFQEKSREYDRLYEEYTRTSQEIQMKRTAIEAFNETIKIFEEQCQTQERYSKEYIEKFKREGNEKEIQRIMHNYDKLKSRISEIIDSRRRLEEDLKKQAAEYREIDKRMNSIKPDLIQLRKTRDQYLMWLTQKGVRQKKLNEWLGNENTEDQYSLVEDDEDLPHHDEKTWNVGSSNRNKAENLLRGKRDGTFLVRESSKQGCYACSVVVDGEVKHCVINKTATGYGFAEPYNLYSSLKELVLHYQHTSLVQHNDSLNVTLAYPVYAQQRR
PI3Kγ (p110γ) Recombinant Human Protein, sequence (P48736 whole entry): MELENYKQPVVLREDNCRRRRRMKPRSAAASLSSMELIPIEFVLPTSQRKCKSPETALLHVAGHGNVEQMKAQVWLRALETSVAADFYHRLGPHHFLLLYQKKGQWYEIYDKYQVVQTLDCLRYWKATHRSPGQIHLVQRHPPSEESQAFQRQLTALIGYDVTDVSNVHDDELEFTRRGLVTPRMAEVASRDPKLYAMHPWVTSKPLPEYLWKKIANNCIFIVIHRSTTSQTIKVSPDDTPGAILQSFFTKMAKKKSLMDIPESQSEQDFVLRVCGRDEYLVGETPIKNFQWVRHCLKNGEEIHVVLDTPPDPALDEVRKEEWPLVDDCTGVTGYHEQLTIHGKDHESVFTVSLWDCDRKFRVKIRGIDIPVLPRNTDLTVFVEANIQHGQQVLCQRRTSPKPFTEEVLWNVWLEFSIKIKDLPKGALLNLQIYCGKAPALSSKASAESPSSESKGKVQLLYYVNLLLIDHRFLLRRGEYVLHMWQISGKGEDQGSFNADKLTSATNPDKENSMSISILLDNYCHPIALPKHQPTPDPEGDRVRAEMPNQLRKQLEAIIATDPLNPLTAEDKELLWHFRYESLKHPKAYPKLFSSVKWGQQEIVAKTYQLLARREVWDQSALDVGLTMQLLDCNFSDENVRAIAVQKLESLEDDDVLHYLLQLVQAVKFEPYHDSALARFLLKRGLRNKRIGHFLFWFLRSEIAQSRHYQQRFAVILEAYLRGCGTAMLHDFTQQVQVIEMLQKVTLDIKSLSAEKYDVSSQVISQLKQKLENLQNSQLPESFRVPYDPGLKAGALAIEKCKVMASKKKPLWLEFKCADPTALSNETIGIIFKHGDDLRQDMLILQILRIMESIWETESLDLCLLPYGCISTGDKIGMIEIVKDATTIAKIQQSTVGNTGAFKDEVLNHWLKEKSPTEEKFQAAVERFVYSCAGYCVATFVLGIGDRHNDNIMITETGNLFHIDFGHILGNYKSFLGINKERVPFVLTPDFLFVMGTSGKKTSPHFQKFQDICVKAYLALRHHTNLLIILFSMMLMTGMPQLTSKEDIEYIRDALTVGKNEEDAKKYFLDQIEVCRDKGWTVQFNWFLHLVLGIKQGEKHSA

| Compound | IC50 [1] | IC50 [2] | IC50 [3] |
| --- | --- | --- | --- |
| Cc1[nH]c(-c2cc(-c3cncc(N4CCOCC4)c3)ccn2)nc1C(=O)N1CC(C)(C)C1 [Example 267, 2′-{4-[(3,3-Dimethylazetidin-1-yl)carbonyl]-5-methyl-1H-imidazol-2-yl}-5-morpholin-4-yl-3,4′-bipyridine] | ≤ 50 nM | 1000 to 5000 nM | ≤ 50 nM |
| Cc1nc(-c2cc(-c3cncc(S(C)(=O)=O)c3)ccn2)[nH]c1C1CC1 [Example 116, 2′-(5-Cyclopropyl-4-methyl-1H-imidazol-2-yl)-5-(methylsulfonyl)-3,4′-bipyridine trifluoroacetate salt] | ≤ 50 nM | ≤ 300 nM | ≤ 50 nM |
| Cc1[nH]c(-c2cc(-c3cncc(S(C)(=O)=O)c3)ccn2)nc1C(=O)N[C@@H]1CCOC1 [Example 256, 5-Methyl-2-[5-(methylsulfonyl)-3,4′-bipyridin-2′-yl]-N-[(3R)-tetrahydrofuran-3-yl]-1H-imidazole-4-carboxamide trifluoroacetate salt] | ≤ 50 nM | 1000 to 5000 nM | ≤ 50 nM |
| COC1CCN(C(=O)c2cncc(-c3ccnc(-c4nc(C)c(C)[nH]4)c3)c2)C1 (racemic) [Example 174, 2′-(4,5-Dimethyl-1H-imidazol-2-yl)-5-[(3-methoxypyrrolidin-1-yl)carbonyl]-3,4′-bipyridine trifluoroacetate salt] | ≤ 50 nM | ≤ 300 nM | ≤ 50 nM |
| N#Cc1ccccc1Cn1cc(-c2ccnc(-c3ncc(-c4ccccc4)[nH]3)c2)cn1 [Example 6, 2-((4-(2-(5-Phenyl-1H-imidazol-2-yl)pyridin-4-yl)-1H-pyrazol-1-yl)methyl)benzonitrile trifluoroacetate salt] | ≤ 100 nM | > 5000 nM | ≤ 500 nM |

Results, then the compound that gave them:

| IC50 [1] | IC50 [2] | IC50 [3] | Compound |
| --- | --- | --- | --- |
| ≤ 50 nM | > 5000 nM | > 500 nM | CNC(=O)c1nc(-c2cc(-c3cnn(Cc4ccc(Cl)cc4)c3)ccn2)[nH]c1C [Example 296] |
| ≤ 50 nM | 300 to 1000 nM | ≤ 50 nM | CS(=O)(=O)c1cncc(-c2ccnc(-c3ncc(C(F)(F)F)[nH]3)c2)c1 [Example 109, 5-(Methylsulfonyl)-2′-(5-(trifluoromethyl)-1H-imidazol-2-yl)-3,4′-bipyridine trifluoroacetate salt] |
| ≤ 50 nM | ≤ 300 nM | ≤ 50 nM | Cc1[nH]c(-c2cc(-c3cncc(N4CCOCC4)c3)ccn2)nc1C(=O)NC(C)(C)C [Example 266, N-(tert-Butyl)-5-methyl-2-(5-morpholin-4-yl-3,4′-bipyridin-2′-yl)-1H-imidazole-4-carboxamide] |
